Results from patent US10406218B2 (priority 2014, dated 2019).
Where two headings read alike, the source gives them in different places.

Experiments:
Format in all cases: cell-based, human
[1] = system: IL-10 production by cells of HC donors; conditions: for IL-10 SFC: HC donors; for # resp IL-10: number of responding HC donors out of # tested (5 or 6)
[2] = system: IFNγ production by cells of HC donors; assay: IFNγ production (SFC) in HC donors in response to broadly conserved peptides; conditions: for IFNg SFC: HC donors; for # resp IFNg: number of responding HC donors out of # tested (5 or 6)
Description: To test this hypothesis, the HLA binding capacity of the 4241 broadly conserved peptides for common HLA class II alleles was predicted. Next peptides were selected predicted to bind with high affinity to alleles expressed in representative HC donors were tested for IL-10 production. Several frequently recognized IL-10 producing peptides could be identified (FIG. 13A), none of which produced a significant amount of IFNγ (FIG. 13B).

[3] = system: PBMC from 30 HC individuals; assay: ex vivo IFNγ ELISPOT with NTM-specific peptides
[4] = response frequency among HC donors, NTM-specific peptides (Table 2)
[5] = total spot forming cells, IFNγ ELISPOT, NTM-specific peptides (Table 2)

## FTGKPEFVENFFMFI [Peptide 3580.0004]
[1]
  IL-10 SFC: 622 SFC
  # resp IL-10: 3
[2]
  IFNg SFC: 27 SFC
  # resp IFNg: 0

## AELTRVRQQVIQLLS [Peptide 3580.0001]
[1]
  IL-10 SFC: 733 SFC
  # resp IL-10: 4
[2]
  IFNg SFC: 27 SFC
  # resp IFNg: 0

## LPFFSFMTYLIAVPT [Peptide 3580.0007]
[1]
  IL-10 SFC: 505 SFC
  # resp IL-10: 4
[2]
  IFNg SFC: 22 SFC
  # resp IFNg: 0

## APFISEFLVLLGTFS [Peptide 3580.0005]
[1]
  IL-10 SFC: 585 SFC
  # resp IL-10: 3
[2]
  IFNg SFC: 15 SFC
  # resp IFNg: 0

## GRFIALLRIFAGPLA [Peptide 3580.0011]
[1]
  IL-10 SFC: 1480 SFC
  # resp IL-10: 5
[2]
  IFNg SFC: 52 SFC
  # resp IFNg: 0

## ATFAGIYFWFPKMTG [Peptide 3580.0008]
[1]
  IL-10 SFC: 1328 SFC
  # resp IL-10: 6
[2]
  IFNg SFC: 28 SFC
  # resp IFNg: 0

## LSSTEFELLRFLMRN [Peptide 3580.0020]
[1]
  IL-10 SFC: 1017 SFC
  # resp IL-10: 5
[2]
  IFNg SFC: 33 SFC
  # resp IFNg: 0

## LAMFAIIFFWTPPHT [Peptide 3580.0016]
[1]
  IL-10 SFC: 1142 SFC
  # resp IL-10: 5
[2]
  IFNg SFC: 27 SFC
  # resp IFNg: 0

## 1474 (MFETMAAFMLVEHAN) [Peptide 1474]
[3]; [4]
  Resp Freq: 3%
[3]; [5]
  Total SFC: 23 SFC

## 629 (VQFMPLVIAPQLLLC) [Peptide 629]
[3]; [4]
  Resp Freq: 3%
[3]; [5]
  Total SFC: 37 SFC

## 540 (VVYAFMSLFVVNVVV) [Peptide 540]
[3]; [4]
  Resp Freq: 3%
[3]; [5]
  Total SFC: 25 SFC

## 628 (LGVFPLIVMFLITSI) [Peptide 628]
[3]; [4]
  Resp Freq: 3%
[3]; [5]
  Total SFC: 53 SFC

## ESFLFYSGFYLPMYW [Peptide 3580.0002]
[1]
  IL-10 SFC: 570 SFC
  # resp IL-10: 4
[2]
  IFNg SFC: 8 SFC
  # resp IFNg: 0

## 1334 (FFDAGLVVFLPIIMT) [Peptide 1334]
[3]; [4]
  Resp Freq: 3%
[3]; [5]
  Total SFC: 47 SFC

## 421 (DPAFRQVFAAQFLPD) [Peptide 421]
[3]; [4]
  Resp Freq: 3%
[3]; [5]
  Total SFC: 40 SFC

## 963 (VLVVFLLPALRDGAP) [Peptide 963]
[3]; [4]
  Resp Freq: 3%
[3]; [5]
  Total SFC: 25 SFC

## 1141 (HAEYKQVTVLFADVV) [Peptide 1141]
[3]; [4]
  Resp Freq: 3%
[3]; [5]
  Total SFC: 38 SFC

## AKSVLIFLGIPLLAG [Peptide 3580.0010]
[1]
  IL-10 SFC: 892 SFC
  # resp IL-10: 4
[2]
  IFNg SFC: 35 SFC
  # resp IFNg: 0

## 621 (AKVLGVFLVTEIVML) [Peptide 621]
[3]; [4]
  Resp Freq: 3%
[3]; [5]
  Total SFC: 27 SFC

## 387 (RGQFWIWAGANIAPI) [Peptide 387]
[3]; [4]
  Resp Freq: 3%
[3]; [5]
  Total SFC: 47 SFC

## 588 (HLFQVMAFVVMEPPT) [Peptide 588]
[3]; [4]
  Resp Freq: 3%
[3]; [5]
  Total SFC: 52 SFC

## 205 (TTSLAFLVAFRPGLV) [Peptide 205]
[3]; [4]
  Resp Freq: 3%
[3]; [5]
  Total SFC: 45 SFC

## LGVAALLFGFPIFFD [Peptide 391]
[3]
  Resp Freq: 3%
  Total SFC: 77 SFC
[3]; [4]
  Resp Freq: 3%
[3]; [5]
  Total SFC: 77 SFC

## PKLKQFMSDVVWIEH [Peptide 775]
[3]
  Resp Freq: 7%
  Total SFC: 70 SFC
[3]; [4]
  Resp Freq: 7%
[3]; [5]
  Total SFC: 70 SFC

## 106 (GLSSAWLSLIFAEMI) [Peptide 106]
[3]; [4]
  Resp Freq: 3%
[3]; [5]
  Total SFC: 55 SFC

## 1077 (GFVTEFLQREVQNFL) [Peptide 1077]
[3]; [4]
  Resp Freq: 3%
[3]; [5]
  Total SFC: 22 SFC

## MVAFMVRYTSGYLCV [Peptide 3580.0017]
[1]
  IL-10 SFC: 1058 SFC
  # resp IL-10: 4
[2]
  IFNg SFC: 8 SFC
  # resp IFNg: 0

## 713 (EGELHLFTPEVVFLL) [Peptide 713]
[3]; [4]
  Resp Freq: 3%
[3]; [5]
  Total SFC: 30 SFC

## 447 (DDRRTLLWLANQRAV) [Peptide 447]
[3]; [4]
  Resp Freq: 3%
[3]; [5]
  Total SFC: 53 SFC

## KDVFFYEPIILPEKS [Peptide 752]
[3]
  Resp Freq: 3%
  Total SFC: 78 SFC
[3]; [4]
  Resp Freq: 3%
[3]; [5]
  Total SFC: 78 SFC

## 714 (AFTHFALLANVAEDI) [Peptide 714]
[3]; [4]
  Resp Freq: 3%
[3]; [5]
  Total SFC: 35 SFC

## 257 (FFHIYGMTVLLNAAL) [Peptide 257]
[3]; [4]
  Resp Freq: 3%
[3]; [5]
  Total SFC: 35 SFC

## 1285 (PADASIVKLYYSELL) [Peptide 1285]
[3]; [4]
  Resp Freq: 3%
[3]; [5]
  Total SFC: 53 SFC

## 1001 (KGGLRFHPSVYLGIV) [Peptide 1001]
[3]; [4]
  Resp Freq: 3%
[3]; [5]
  Total SFC: 37 SFC

## 883 (EWFARILFSLFSTPS) [Peptide 883]
[3]; [4]
  Resp Freq: 3%
[3]; [5]
  Total SFC: 28 SFC

## RELIRAFWPGALSLV [Peptide 3580.0019]
[1]
  IL-10 SFC: 422 SFC
  # resp IL-10: 3
[2]
  IFNg SFC: 27 SFC
  # resp IFNg: 0

## 1571 (ADGLVLFNRFLQPDI) [Peptide 1571]
[3]; [4]
  Resp Freq: 3%
[3]; [5]
  Total SFC: 48 SFC

## 1255 (GNELWQIALLELWLQ) [Peptide 1255]
[3]; [4]
  Resp Freq: 3%
[3]; [5]
  Total SFC: 37 SFC

## PLAENYLRLNALGAY [Peptide 1364]
[3]
  Resp Freq: 3%
  Total SFC: 228 SFC
[3]; [4]
  Resp Freq: 3%
[3]; [5]
  Total SFC: 228 SFC

## 672 (ASGTLLFKLTPWIVV) [Peptide 672]
[3]; [4]
  Resp Freq: 3%
[3]; [5]
  Total SFC: 25 SFC

## FVTYWSFRMMIGLMA [Peptide 3580.0003]
[1]
  IL-10 SFC: 563 SFC
  # resp IL-10: 4
[2]
  IFNg SFC: 10 SFC
  # resp IFNg: 0

## RFTLLRPLLFTIAYE [Peptide 311]
[3]
  Resp Freq: 3%
  Total SFC: 477 SFC
[3]; [4]
  Resp Freq: 3%
[3]; [5]
  Total SFC: 477 SFC

## 760 (AEWVVRTILSLLTVR) [Peptide 760]
[3]; [4]
  Resp Freq: 3%
[3]; [5]
  Total SFC: 38 SFC

## IGQFGIGFYSSFMVA [Peptide 3580.0012]
[1]
  IL-10 SFC: 468 SFC
  # resp IL-10: 3
[2]
  IFNg SFC: 10 SFC
  # resp IFNg: 0

## YVLFLFTQTVRHRDF [Peptide 3580.0014]
[1]
  IL-10 SFC: 975 SFC
  # resp IL-10: 4
[2]
  IFNg SFC: 53 SFC
  # resp IFNg: 0

## 651 (FSWFAAGMVLAELTV) [Peptide 651]
[3]; [4]
  Resp Freq: 3%
[3]; [5]
  Total SFC: 22 SFC

## 1526 (VATVRAASSLVRAPL) [Peptide 1526]
[3]; [4]
  Resp Freq: 3%
[3]; [5]
  Total SFC: 27 SFC

## 543 (VIMPWMIFYQQGAVV) [Peptide 543]
[3]; [4]
  Resp Freq: 3%
[3]; [5]
  Total SFC: 43 SFC

## 438 (GSVLLVQALLVTSLL) [Peptide 438]
[3]; [4]
  Resp Freq: 3%
[3]; [5]
  Total SFC: 25 SFC

## 1393 (ANVRYISGAPQLWVV) [Peptide 1393]
[3]; [4]
  Resp Freq: 3%
[3]; [5]
  Total SFC: 42 SFC

## 78 (IVGAALFLASDASSF) [Peptide 78]
[3]; [4]
  Resp Freq: 3%
[3]; [5]
  Total SFC: 32 SFC

## 1525 (FFHRGLMLMSFDEHL) [Peptide 1525]
[3]; [4]
  Resp Freq: 3%
[3]; [5]
  Total SFC: 25 SFC

## 1132 (FLFTMLQKTLKGNIF) [Peptide 1132]
[3]; [4]
  Resp Freq: 3%
[3]; [5]
  Total SFC: 35 SFC

## 400 (MKELLAENLMVMMRD) [Peptide 400]
[3]; [4]
  Resp Freq: 3%
[3]; [5]
  Total SFC: 32 SFC

## 718 (LGPTAGLTVASALLV) [Peptide 718]
[3]; [4]
  Resp Freq: 3%
[3]; [5]
  Total SFC: 28 SFC

## 865 (TPLFMAHYAPFGLLT) [Peptide 865]
[3]; [4]
  Resp Freq: 3%
[3]; [5]
  Total SFC: 25 SFC

## 1134 (TLLTMLWQNLIGNAV) [Peptide 1134]
[3]; [4]
  Resp Freq: 3%
[3]; [5]
  Total SFC: 47 SFC
